Experimental data: patent publication US7141561B2, “Substituted diaryl heterocycles, process for their preparation and their use as medicaments” (Sanofi-Aventis Deutschland GmbH, priority 2002, dated 2006)

Tested on: female NMRI mice
Experiment: Anorectic effect: cumulative condensed milk consumption of mice
Format: in vivo
Details: oral dose 30 mg/kg by gavage
Protocol: The anorectic effect was tested on female NMRI mice. After withdrawal of food for 17 hours, the test compound was administered by gavage. The animals were housed singly with free access to drinking water and were offered condensed milk 30 minutes after administration of the compound. Condensed milk consumption was determined every half hour for 7 hours, and the general wellbeing of the animals was observed. The measured milk consumption was compared with the vehicle-treated control animals.
Table 1: Anorectic effect measured as the reduction in the cumulative milk consumption of treated compared with control animals.

CN(C)CCOc1ccc(-n2ccn(-c3ccc(Oc4ccccc4)cc3)c2=O)cc1 [Example 1, 1-[4-(2-Dimethylaminoethoxy)phenyl]-3-(4-phenoxyphenyl)-1,3-dihydroimidazol-2-one]
cumulative milk consumption of the treated animals (female NMRI mice after 17 hours food withdrawal, N=5, consumption determined for 7 hours): 5/1.7 ml | Reduction in the cumulative milk consumption as % of the control (female NMRI mice, compared with vehicle-treated control animals): 58%
